Reference: paper PMC7180948, “New Insights into 4-Anilinoquinazolines as Inhibitors of Cardiac Troponin I–Interacting Kinase (TNNi3K)” (Molecules, 2020)

Tests used:
Assay in all cases: biochemical
Design in all cases: KINOMEscan competition binding panel (Eurofins DiscoverX), single concentration, percent inhibition
Settings in all cases: read-out: 15 at 1 µM % inhibition
AAK1 = AAK1 (Homo sapiens, UniProt Q2M2I8)
How it was run: (§1)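 A single 1 µM concentration of each compound is screened across upwards of 400 human kinases using the KINOMEscan format.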

CAMK4 = CAMK4 (Homo sapiens, UniProt Q16566)
How it was run: as §1

CDK7 = CDK7 (Homo sapiens, UniProt P50613)
How it was run: as §1

DCAMKL1 = molecular target: T1, DCAMKL1 (Homo sapiens, UniProt O15075)
T1 construct: gene DCLK1
How it was run: as §1

DMPK = DMPK (Homo sapiens, UniProt Q09013)
How it was run: as §1

EGFR = EGFR (Homo sapiens, UniProt P00533)
How it was run: as §1

EPHA6 = EPHA6 (Homo sapiens, UniProt Q9UF33)
How it was run: as §1

FLT3(N841I) = FLT3(N841I) (Homo sapiens, UniProt P36888, N841I)
How it was run: as §1

FRK = FRK (Homo sapiens, UniProt P42685)
How it was run: as §1

IKK-beta = molecular target: T2, IKK-beta (Homo sapiens, UniProt O14920)
T2 construct: gene IKBKB
How it was run: as §1

IRAK1 = IRAK1 (Homo sapiens, UniProt P51617)
How it was run: as §1

KIT(L576P) = KIT(L576P) (Homo sapiens, UniProt P10721, L576P)
How it was run: as §1

LKB1 = molecular target: T3, LKB1 (Homo sapiens, UniProt Q15831)
T3 construct: gene STK11
How it was run: as §1

MAP3K1 = MAP3K1 (Homo sapiens, UniProt Q13233)
How it was run: as §1

MARK1 = MARK1 (Homo sapiens, UniProt Q9P0L2)
How it was run: as §1

MARK4 = MARK4 (Homo sapiens, UniProt Q96L34)
How it was run: as §1

MET(M1250T) = MET(M1250T) (Homo sapiens, UniProt P08581, M1250T)
How it was run: as §1

MUSK = MUSK (Homo sapiens, UniProt O15146)
How it was run: as §1

PIK3CG = PIK3CG (Homo sapiens, UniProt P48736)
How it was run: as §1

PIK4CB = molecular target: T4, PIK4CB (Homo sapiens, UniProt Q9UBF8)
T4 construct: gene PI4KB
How it was run: as §1

SRPK2 = SRPK2 (Homo sapiens, UniProt P78362)
How it was run: as §1

STK36 = STK36 (Homo sapiens, UniProt Q9NRP7)
How it was run: as §1

YSK1 = molecular target: T5, YSK1 (Homo sapiens, UniProt O00506)
T5 construct: gene STK25
How it was run: as §1

p38-delta = molecular target: T6, p38-delta (Homo sapiens, UniProt O15264)
T6 construct: gene MAPK13
How it was run: as §1

T1 sequence (O15075 whole entry): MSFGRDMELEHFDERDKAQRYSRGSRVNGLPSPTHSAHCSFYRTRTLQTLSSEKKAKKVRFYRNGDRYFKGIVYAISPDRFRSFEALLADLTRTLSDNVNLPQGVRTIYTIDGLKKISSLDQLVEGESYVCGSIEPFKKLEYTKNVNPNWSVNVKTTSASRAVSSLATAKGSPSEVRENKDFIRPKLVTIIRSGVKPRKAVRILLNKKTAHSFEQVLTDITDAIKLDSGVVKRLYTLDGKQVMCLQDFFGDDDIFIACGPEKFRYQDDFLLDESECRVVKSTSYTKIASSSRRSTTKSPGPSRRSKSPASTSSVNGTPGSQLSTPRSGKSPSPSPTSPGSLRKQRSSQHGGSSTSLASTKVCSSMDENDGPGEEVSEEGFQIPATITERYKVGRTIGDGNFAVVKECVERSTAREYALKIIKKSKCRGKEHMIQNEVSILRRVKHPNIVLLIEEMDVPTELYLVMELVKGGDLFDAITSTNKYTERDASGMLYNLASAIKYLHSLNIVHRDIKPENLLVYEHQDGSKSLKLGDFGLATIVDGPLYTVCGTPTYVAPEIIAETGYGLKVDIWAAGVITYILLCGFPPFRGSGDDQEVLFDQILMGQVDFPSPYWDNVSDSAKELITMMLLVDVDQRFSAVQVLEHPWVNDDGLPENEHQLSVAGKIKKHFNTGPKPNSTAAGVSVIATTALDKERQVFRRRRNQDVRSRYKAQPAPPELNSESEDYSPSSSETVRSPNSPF
T6 sequence (O15264 whole entry): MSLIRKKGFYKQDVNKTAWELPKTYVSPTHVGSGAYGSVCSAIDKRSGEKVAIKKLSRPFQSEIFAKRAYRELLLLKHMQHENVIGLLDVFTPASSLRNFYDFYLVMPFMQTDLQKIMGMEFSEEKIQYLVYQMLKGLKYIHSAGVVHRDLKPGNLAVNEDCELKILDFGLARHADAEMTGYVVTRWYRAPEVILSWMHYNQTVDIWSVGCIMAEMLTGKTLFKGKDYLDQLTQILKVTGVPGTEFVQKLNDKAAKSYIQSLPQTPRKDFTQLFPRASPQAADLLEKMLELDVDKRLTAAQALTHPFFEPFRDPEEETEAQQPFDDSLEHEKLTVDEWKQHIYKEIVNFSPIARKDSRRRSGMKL
Chain of SRPK2 (P78362 whole entry): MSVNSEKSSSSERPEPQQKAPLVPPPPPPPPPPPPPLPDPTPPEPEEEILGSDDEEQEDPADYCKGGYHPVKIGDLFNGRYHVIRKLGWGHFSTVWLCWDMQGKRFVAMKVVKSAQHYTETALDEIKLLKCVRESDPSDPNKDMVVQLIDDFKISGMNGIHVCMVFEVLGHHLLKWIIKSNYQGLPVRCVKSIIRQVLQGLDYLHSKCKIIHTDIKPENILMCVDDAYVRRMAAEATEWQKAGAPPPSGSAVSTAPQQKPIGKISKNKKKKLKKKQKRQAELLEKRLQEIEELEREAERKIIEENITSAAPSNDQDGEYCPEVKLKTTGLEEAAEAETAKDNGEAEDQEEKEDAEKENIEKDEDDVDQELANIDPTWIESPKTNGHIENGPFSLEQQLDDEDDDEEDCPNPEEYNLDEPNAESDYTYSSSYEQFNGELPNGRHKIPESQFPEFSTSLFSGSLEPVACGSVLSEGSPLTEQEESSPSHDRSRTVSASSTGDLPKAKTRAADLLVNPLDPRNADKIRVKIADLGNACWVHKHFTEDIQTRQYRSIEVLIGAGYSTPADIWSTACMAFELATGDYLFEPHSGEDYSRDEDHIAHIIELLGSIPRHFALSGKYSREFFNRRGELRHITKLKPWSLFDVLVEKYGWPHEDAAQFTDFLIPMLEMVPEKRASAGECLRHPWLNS
T5 sequence (O00506 whole entry): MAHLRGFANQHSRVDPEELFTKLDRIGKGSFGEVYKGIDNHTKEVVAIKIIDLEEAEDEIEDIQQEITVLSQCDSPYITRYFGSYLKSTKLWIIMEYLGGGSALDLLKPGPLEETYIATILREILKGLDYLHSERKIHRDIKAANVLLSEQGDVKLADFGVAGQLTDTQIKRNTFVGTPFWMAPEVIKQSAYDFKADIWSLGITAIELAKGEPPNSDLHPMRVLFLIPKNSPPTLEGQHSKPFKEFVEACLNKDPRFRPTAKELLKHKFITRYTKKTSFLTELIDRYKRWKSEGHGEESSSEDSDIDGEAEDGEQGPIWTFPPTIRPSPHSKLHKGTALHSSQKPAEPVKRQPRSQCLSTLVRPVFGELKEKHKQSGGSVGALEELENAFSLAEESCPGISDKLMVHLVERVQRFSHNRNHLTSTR
Chain of MET(M1250T) (P08581 whole entry M1250T): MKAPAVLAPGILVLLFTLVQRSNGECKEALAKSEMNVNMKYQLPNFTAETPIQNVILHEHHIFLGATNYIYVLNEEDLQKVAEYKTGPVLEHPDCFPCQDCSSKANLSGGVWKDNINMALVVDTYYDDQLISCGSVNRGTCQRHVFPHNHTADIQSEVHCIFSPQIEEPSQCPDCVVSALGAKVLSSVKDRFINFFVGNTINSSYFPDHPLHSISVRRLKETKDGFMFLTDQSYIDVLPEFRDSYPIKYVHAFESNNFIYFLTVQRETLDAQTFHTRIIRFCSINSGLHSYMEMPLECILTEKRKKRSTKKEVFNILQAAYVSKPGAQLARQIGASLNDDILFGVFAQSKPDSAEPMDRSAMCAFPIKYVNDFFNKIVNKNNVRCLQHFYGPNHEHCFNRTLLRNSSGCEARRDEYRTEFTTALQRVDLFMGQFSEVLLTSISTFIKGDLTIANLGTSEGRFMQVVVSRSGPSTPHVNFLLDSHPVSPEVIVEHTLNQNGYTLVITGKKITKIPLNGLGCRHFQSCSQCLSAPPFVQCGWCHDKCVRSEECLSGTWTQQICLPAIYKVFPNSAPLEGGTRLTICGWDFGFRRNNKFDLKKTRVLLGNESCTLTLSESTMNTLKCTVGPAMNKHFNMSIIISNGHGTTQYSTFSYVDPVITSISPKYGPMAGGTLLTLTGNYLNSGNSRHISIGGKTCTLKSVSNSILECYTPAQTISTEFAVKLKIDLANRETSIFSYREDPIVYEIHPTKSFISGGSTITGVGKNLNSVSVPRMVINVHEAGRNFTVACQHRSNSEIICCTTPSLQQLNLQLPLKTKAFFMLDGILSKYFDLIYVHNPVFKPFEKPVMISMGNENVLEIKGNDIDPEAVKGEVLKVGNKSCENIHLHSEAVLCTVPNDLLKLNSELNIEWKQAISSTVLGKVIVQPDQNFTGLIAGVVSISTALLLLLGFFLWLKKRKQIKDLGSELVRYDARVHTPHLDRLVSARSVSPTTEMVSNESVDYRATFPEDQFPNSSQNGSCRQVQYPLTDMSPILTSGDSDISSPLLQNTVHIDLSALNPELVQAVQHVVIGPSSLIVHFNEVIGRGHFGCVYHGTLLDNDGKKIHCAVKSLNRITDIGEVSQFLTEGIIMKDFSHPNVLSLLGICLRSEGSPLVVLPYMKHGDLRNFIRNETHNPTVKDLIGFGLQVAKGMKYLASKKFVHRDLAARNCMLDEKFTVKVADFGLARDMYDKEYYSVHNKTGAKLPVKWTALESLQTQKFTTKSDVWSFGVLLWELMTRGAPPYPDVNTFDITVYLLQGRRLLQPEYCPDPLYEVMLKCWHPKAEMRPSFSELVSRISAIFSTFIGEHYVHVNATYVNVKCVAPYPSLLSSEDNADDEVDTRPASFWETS
Chain of CDK7 (P50613 whole entry): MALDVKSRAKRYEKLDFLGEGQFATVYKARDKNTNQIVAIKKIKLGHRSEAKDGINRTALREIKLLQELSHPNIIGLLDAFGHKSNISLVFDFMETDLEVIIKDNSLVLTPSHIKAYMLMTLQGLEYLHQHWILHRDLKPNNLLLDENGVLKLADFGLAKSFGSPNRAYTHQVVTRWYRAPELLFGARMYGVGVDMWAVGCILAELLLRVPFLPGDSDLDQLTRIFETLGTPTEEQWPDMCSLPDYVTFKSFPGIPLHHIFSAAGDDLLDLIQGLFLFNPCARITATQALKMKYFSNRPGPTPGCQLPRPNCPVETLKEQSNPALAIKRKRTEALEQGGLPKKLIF
Chain of MARK1 (Q9P0L2 whole entry): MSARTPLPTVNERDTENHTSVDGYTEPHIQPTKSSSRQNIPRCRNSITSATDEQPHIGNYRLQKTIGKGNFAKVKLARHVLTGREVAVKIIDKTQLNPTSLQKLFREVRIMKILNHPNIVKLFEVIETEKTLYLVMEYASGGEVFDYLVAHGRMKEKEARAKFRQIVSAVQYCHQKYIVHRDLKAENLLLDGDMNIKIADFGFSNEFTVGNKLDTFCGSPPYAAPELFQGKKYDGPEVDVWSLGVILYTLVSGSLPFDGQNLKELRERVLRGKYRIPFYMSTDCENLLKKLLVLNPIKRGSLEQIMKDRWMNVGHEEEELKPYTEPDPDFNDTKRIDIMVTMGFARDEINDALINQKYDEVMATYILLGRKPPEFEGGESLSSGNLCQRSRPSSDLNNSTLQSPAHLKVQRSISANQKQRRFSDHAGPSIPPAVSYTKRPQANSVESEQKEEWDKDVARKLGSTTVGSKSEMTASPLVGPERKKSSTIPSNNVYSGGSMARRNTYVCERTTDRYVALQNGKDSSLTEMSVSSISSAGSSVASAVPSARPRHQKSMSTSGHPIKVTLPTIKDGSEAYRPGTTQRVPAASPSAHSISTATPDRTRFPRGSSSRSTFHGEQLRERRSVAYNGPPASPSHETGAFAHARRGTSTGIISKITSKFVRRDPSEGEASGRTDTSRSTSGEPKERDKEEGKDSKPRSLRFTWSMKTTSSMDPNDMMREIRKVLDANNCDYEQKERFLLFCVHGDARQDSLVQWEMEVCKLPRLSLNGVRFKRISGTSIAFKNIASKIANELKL

CNS(=O)(=O)c1ccc(N(C)C)c(Nc2nc(C)nc3cc(OC)c(OC)cc23)c1 [compound 15, 3-((6,7-dimethoxy-2-methylquinazolin-4-yl)amino)-4-(dimethylamino)-N-methylbenzenesulfonamide]
inhibition at 1 µM (AAK1): 4% | inhibition at 1 µM (CAMK4): 1% | inhibition at 1 µM (CDK7): 18% | inhibition at 1 µM (DCAMKL1): 9% | inhibition at 1 µM (DMPK): 3% | inhibition at 1 µM (EGFR): 0% | inhibition at 1 µM (EPHA6): 0% | inhibition at 1 µM (FLT3(N841I)): 0% | inhibition at 1 µM (FRK): 0% | inhibition at 1 µM (IKK-beta): 37% | inhibition at 1 µM (IRAK1): 11% | inhibition at 1 µM (KIT(L576P)): 0% | inhibition at 1 µM (LKB1): 0% | inhibition at 1 µM (MAP3K1): 27% | inhibition at 1 µM (MARK1): 0% | inhibition at 1 µM (MARK4): 0% | inhibition at 1 µM (MET(M1250T)): 0% | inhibition at 1 µM (MUSK): 0% | inhibition at 1 µM (PIK3CG): 0% | inhibition at 1 µM (PIK4CB): 12% | inhibition at 1 µM (SRPK2): 16% | inhibition at 1 µM (STK36): 0% | inhibition at 1 µM (YSK1): 13% | inhibition at 1 µM (p38-delta): 17%
